From ChEMBL document CHEMBL1201862, “PubChem BioAssay data set” (2004)
Calls of active or inactive are those of the source.

Columns and labels:
Format in all cases: functional
[1] = target: Dual specificity protein kinase CLK2 (Homo sapiens, UniProt P49760)
[2] = target: Ribosomal protein S6 kinase beta-1 (Homo sapiens, UniProt P23443);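 also: measured as one member of a kinome-wide profiling panel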
[3] = target: Serine/threonine-protein kinase Chk2 (Homo sapiens, UniProt O96017);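 also: CHEK2 entry within a kinome-wide screening panel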
Sequence of Serine/threonine-protein kinase Chk2 (O96017 whole entry): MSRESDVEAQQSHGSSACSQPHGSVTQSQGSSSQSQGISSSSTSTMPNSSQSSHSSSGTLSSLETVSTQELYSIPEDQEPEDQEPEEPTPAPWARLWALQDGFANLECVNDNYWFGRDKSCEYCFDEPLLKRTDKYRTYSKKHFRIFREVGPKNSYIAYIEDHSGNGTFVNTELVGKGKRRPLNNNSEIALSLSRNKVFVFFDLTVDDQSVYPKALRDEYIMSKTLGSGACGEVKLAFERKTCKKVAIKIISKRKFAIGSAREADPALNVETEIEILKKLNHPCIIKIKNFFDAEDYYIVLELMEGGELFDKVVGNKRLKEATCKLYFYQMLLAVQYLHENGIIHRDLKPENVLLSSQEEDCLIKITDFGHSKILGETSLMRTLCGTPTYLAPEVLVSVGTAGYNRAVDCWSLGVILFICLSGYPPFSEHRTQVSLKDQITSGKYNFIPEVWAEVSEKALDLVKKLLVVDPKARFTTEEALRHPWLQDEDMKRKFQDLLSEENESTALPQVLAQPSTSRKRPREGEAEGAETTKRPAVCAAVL

[4] = target: SRSF protein kinase 1 (Homo sapiens, UniProt Q96SB4);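 also: measured as one member of a kinome-wide kinase profiling panel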
[5] = target: Calcium/calmodulin-dependent protein kinase type II subunit delta (Homo sapiens, UniProt Q13557)
Sequence of Calcium/calmodulin-dependent protein kinase type II subunit delta (Q13557 whole entry, canonical isoform): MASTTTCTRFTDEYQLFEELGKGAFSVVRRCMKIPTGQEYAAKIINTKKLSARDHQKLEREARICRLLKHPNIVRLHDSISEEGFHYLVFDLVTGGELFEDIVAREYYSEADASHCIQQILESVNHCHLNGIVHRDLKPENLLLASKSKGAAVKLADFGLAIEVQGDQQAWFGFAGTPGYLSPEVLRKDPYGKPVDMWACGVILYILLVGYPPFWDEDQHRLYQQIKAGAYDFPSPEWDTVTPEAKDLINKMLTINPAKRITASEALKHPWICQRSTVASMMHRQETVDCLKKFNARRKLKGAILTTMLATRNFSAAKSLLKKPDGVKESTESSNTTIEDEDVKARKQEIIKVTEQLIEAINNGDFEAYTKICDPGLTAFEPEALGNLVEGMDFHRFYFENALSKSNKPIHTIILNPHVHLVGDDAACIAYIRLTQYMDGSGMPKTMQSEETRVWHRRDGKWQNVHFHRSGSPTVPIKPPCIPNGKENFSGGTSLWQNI

[6] = target: Casein kinase I isoform gamma-1 (Homo sapiens, UniProt Q9HCP0);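 also: measured as the CSNK1G1 member of a kinome profiling panel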
Sequence of Casein kinase I isoform gamma-1 (Q9HCP0 whole entry, canonical isoform): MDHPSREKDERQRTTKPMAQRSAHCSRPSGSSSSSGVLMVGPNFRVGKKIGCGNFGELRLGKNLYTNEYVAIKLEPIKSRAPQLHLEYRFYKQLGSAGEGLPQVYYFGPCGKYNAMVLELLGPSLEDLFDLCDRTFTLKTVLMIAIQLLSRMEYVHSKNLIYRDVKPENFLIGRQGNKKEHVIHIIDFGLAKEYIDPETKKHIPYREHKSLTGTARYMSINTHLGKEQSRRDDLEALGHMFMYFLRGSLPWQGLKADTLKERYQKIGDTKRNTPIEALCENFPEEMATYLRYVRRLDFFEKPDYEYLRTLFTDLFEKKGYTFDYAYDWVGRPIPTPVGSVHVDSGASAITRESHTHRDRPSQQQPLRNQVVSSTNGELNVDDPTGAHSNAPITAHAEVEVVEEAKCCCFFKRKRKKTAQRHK

[7] = target: MAP/microtubule affinity-regulating kinase 3 (Homo sapiens, UniProt P27448);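 also: MARK3 affinity measured as one member of a kinome panel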
[8] = target: Non-receptor tyrosine-protein kinase TYK2 (Homo sapiens, UniProt P29597)
Sequence of Non-receptor tyrosine-protein kinase TYK2 (P29597 whole entry): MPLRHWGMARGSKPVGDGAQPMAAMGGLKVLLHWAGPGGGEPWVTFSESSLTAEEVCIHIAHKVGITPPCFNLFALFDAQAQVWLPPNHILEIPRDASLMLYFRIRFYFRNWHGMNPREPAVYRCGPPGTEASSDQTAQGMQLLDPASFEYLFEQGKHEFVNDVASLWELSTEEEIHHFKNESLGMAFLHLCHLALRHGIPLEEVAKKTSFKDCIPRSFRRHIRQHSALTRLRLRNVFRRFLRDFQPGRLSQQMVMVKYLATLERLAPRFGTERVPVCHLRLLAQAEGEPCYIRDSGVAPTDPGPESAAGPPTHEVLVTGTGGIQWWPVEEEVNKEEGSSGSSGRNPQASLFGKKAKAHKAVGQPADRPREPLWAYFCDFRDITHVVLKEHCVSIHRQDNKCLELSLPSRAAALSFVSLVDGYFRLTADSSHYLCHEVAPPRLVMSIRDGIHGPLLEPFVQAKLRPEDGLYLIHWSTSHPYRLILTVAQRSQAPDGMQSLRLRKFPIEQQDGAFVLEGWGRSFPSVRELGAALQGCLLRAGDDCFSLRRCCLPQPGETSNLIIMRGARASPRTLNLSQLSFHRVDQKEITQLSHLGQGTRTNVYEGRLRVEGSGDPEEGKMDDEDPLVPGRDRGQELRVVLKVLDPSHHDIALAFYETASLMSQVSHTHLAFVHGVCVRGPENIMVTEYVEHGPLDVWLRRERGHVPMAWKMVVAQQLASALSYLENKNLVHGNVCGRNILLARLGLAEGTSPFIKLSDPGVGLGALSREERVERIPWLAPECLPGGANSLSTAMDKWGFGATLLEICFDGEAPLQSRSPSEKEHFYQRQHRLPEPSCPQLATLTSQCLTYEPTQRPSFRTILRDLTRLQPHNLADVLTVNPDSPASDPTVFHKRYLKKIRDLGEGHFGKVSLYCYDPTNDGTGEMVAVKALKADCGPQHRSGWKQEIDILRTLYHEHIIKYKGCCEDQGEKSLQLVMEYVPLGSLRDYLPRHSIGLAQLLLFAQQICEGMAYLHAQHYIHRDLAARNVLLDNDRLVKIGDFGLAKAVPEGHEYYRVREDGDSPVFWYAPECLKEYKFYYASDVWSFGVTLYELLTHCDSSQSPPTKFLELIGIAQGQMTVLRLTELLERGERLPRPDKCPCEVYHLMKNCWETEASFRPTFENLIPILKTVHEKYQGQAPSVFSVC

[9] = target: Dual specificity tyrosine-phosphorylation-regulated kinase 3 (Homo sapiens, UniProt O43781);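 also: measured as one member of a broad kinase panel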
Sequence of Dual specificity tyrosine-phosphorylation-regulated kinase 3 (O43781 whole entry): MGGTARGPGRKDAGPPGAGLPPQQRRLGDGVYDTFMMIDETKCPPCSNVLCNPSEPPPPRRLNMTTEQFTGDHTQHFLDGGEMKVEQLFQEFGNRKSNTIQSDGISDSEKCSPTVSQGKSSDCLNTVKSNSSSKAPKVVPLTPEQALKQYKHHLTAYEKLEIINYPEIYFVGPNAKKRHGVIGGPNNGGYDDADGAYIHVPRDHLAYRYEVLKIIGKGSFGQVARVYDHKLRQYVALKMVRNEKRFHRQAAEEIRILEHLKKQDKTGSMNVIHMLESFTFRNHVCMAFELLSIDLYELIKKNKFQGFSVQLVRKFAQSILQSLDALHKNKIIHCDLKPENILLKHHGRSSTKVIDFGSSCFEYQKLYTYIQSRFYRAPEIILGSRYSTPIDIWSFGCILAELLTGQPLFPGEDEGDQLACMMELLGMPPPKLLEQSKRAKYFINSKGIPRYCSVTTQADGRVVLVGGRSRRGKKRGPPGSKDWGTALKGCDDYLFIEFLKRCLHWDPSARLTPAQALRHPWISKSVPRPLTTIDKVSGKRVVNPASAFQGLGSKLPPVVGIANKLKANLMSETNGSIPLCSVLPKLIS

[10] = target: RAC-alpha serine/threonine-protein kinase (Homo sapiens, UniProt P31749);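 also: AKT1 affinity measured as one member of a kinome-wide kinase profiling panel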
[11] = target: Vascular endothelial growth factor receptor 3 (Homo sapiens, UniProt P35916);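 also: value from a kinome-wide profiling panel, with FLT4 as the panel member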
[12] = target: Homeodomain-interacting protein kinase 4 (Homo sapiens, UniProt Q8NE63)
Sequence of Homeodomain-interacting protein kinase 4 (Q8NE63 whole entry): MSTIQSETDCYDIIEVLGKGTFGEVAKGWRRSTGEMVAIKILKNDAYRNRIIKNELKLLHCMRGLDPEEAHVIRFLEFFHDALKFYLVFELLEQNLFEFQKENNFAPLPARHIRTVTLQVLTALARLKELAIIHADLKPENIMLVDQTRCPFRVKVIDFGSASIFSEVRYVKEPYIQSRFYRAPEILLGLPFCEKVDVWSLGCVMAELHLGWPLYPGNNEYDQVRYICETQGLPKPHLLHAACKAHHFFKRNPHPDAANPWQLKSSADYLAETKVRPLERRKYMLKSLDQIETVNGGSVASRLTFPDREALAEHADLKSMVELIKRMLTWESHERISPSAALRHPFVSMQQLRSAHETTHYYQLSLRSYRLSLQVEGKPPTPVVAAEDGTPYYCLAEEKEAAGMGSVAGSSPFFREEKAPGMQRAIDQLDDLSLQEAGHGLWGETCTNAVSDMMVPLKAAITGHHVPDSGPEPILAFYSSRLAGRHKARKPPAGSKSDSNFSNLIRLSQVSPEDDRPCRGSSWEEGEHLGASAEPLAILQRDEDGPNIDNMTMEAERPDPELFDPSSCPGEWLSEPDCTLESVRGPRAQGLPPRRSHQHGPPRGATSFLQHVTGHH

[13] = target: Serine/threonine-protein kinase Nek2 (Homo sapiens, UniProt P51955)
[14] = target: cAMP-dependent protein kinase catalytic subunit alpha (Homo sapiens, UniProt P17612)
[15] = target: T1, Replicative DNA helicase DnaB (Mycobacterium tuberculosis, UniProt P9WMR3); assay: DnaB intein splicing inhibitors, dose response, biochemical, cell-free fluorescence (AID 449749)
T1 sequence (P9WMR3 whole entry): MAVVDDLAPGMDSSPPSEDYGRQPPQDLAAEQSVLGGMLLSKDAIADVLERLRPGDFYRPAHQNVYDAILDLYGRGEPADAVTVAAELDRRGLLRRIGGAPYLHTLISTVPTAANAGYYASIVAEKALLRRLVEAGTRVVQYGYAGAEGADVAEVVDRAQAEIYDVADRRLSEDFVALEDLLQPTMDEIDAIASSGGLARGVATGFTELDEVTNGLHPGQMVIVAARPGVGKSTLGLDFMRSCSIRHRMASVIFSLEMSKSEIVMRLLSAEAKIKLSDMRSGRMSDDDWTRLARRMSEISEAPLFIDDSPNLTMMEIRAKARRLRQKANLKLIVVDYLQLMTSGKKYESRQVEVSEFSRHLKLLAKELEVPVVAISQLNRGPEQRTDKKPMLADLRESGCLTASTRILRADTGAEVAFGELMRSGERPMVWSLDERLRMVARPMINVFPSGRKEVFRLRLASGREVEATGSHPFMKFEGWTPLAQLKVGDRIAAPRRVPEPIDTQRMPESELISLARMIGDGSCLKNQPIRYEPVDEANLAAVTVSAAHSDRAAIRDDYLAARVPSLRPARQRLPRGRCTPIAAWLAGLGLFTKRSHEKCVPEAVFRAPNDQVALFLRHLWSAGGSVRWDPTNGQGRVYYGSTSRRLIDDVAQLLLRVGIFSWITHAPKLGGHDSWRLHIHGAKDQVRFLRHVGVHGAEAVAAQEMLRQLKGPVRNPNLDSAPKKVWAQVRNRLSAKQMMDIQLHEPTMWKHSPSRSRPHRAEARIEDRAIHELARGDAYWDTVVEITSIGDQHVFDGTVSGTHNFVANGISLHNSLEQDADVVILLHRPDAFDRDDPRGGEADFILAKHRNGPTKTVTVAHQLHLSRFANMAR

[16] = target: T2, Apoptotic protease-activating factor 1 (Homo sapiens, UniProt O14727)
T2 sequence (O14727 whole entry): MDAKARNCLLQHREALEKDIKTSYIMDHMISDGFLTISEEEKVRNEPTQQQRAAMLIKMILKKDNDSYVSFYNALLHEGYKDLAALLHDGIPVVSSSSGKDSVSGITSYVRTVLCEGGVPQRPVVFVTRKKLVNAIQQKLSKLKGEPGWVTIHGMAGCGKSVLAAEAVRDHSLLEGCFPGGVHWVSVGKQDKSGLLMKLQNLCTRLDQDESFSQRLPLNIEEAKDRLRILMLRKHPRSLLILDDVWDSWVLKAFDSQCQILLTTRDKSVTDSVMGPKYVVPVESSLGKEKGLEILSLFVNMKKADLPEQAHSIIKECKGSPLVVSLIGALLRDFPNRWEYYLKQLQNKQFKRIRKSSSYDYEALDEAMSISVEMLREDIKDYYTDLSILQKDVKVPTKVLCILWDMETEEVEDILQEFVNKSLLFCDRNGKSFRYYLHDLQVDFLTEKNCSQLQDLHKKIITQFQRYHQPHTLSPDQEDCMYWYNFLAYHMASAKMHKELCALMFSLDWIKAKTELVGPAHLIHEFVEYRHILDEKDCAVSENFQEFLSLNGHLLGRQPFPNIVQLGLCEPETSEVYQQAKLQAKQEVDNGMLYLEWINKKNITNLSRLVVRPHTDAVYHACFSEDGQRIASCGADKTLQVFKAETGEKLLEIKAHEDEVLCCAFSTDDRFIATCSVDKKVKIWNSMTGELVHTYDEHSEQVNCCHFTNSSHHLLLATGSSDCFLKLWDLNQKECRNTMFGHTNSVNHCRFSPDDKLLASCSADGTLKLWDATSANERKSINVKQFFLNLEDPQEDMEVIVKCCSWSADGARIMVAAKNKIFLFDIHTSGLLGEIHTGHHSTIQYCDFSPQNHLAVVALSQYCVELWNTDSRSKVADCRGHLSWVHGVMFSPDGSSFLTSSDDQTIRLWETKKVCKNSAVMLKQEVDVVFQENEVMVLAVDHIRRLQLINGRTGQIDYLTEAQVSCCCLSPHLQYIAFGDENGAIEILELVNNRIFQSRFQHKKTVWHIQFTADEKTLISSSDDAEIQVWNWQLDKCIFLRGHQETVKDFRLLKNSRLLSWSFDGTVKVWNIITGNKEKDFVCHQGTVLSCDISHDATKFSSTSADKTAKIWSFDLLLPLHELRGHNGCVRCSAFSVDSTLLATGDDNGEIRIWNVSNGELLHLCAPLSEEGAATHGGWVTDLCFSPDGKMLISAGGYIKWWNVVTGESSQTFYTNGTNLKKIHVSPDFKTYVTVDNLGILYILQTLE

Sequence of Dual specificity protein kinase CLK2 (P49760 whole entry): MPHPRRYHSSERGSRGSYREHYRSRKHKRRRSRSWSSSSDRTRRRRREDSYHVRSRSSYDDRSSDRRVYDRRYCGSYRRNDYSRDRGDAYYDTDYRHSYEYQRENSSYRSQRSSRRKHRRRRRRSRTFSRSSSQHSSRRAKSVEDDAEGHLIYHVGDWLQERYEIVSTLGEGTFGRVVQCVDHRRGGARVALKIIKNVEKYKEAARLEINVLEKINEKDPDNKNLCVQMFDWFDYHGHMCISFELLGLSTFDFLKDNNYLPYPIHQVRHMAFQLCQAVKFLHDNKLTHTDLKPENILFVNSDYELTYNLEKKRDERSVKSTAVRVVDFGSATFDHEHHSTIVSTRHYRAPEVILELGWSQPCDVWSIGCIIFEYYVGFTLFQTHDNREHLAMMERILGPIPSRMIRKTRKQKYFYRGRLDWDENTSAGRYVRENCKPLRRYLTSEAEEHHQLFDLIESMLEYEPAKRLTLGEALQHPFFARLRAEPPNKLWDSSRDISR
Sequence of Ribosomal protein S6 kinase beta-1 (P23443 whole entry): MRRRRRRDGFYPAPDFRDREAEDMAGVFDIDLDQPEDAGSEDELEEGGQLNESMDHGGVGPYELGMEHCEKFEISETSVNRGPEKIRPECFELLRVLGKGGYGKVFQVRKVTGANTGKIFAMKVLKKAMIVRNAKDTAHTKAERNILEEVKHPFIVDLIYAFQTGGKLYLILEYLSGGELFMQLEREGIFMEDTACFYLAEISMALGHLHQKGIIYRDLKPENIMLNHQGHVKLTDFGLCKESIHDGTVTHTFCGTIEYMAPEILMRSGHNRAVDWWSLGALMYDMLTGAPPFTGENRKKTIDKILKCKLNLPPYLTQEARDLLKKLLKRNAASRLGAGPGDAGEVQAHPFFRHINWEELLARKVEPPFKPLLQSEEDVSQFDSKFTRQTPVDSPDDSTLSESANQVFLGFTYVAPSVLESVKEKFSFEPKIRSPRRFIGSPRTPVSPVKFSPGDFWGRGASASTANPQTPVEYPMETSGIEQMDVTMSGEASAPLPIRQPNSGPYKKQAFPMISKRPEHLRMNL

SMILES | Ki [1] | Ki [2] | Ki [3] | Ki [4] | Ki [5] | Ki [6] | Ki [7] | Ki [8] | Ki [9] | Ki [10] | Ki [11] | Ki [12] | Ki [13] | Ki [14] | AC50 [15] | IC50 [16]
Cn1cncc1C(OCc1c(-c2ccc(OC(F)(F)F)cc2)cc(C#N)c(=O)n1C)c1ccc(C#N)cc1 (stereo unspecified) | > 7.94 µM (inactive) | 1.58 µM (active) | > 1.58 µM (inactive) | > 7.94 µM (inactive) | > 6.31 µM (inactive) | > 6.31 µM (inactive) | 0.794 µM (active) | > 2 µM (inactive) | > 6.31 µM (inactive) | > 7.94 µM (inactive) | > 6.31 µM (inactive) | > 7.94 µM (inactive) | > 10 µM (inactive) | > 7.94 µM (inactive) | – | –
CCc1ccc(S(=O)(=O)/N=C2\C=C(NS(=O)(=O)c3ccccc3)C(=O)c3ccccc32)cc1 | – | – | – | – | – | – | – | – | – | – | – | – | – | – | 2.55 µM (active) | 13.3 µM (active)
